From patent publication US5879942A, “Processing enzyme for polypeptide” (Kabushiki Kaisha Hayashibara Seibutsu Kagaku Kenkyujo, priority 1996, dated 1999) come the findings set out here.

Each structure is given as a SMILES string.

In the experiment the target is T1, the present enzyme (Homo sapiens, UniProt P29466).
T1 construct: Using the anti-human ICE-p20 antibody and the antihuman ICE-p10 antibody; endogenous in cells
T1 sequence (P29466 120-297 limits assumed): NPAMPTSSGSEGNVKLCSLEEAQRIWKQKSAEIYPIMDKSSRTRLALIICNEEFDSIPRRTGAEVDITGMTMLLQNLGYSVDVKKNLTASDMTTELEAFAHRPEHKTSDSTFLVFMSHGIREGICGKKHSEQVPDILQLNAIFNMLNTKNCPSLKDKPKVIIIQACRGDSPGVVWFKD
T1 sequence (P29466 317-404 limits assumed): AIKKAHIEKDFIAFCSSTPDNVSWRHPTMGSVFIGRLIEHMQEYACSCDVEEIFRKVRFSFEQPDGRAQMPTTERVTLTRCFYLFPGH
Nature of the experiment: Activity of inhibitory agent on enzyme: conversion of precursor, Western Blotting. It counts as biochemical. The following applies: for band corresponding to the active form on Western Blotting: enzyme of Example 1 (THP-1 cells), 37° C. for 3 hours; for Inhibitory agent: enzyme obtainable from a human hematopoietic cell, general property; for enzyme activity inhibited: enzyme of Example 7 (HL-60 cells), methods in Examples 2-5. On the procedure: A substrate solution was prepared by dissolving the precursor of the polypeptide in Example 4-1 in 100 mM Hepes buffer (pH 7.4), containing 10 v/v % glycerol, 0.1 w/v % CHAPS and 2 mM dithiothreitol, to give a concentration of 500 nM, and mixed with 350 units/ml of the enzyme solution in Example 1, followed by the incubation at 37° C. At 0 min, 10 min, 30 min, one hour, 3 hours, 6 hours and 18 hours after initiating the incubation, a portion of the reaction mixture was sampled at each sampling time and admixed with iodoacetamide to give a final concentration of 200 μg/ml to suspend the reaction. The Western Blotting method using the monoclonal antibody, as disclosed in Japanese Patent Application No.231,598/96 applied by the same applicant of the present invention, was applied to the reaction mixture to study the change on passage of time during the conversion of the precursor into the active form.
In the conversion method for precursor in Example 4-2, the present enzyme in Example 1 was admixed with 5 μM Ac-YVAD-CHO or 650 μM iodoacetamide and reacted at 37° C. for 3 hours.
A general note: In western blotting, separated proteins are transferred to a membrane and probed.

For the compound `CC(=O)N[C@@H](Cc1ccc(O)cc1)C(=O)N[C@H](C(=O)N[C@@H](C)C(=O)N[C@H](C=O)CC(=O)O)C(C)C` [Ac-YVAD-CHO, acetyl-L-tyrosyl-L-varyl-L-alanyl-L-aspart-1-al], the Inhibitory agent result is reported as “inhibited” and the enzyme activity inhibited result is given as “inhibited”. Further, where the note is “5 μM Ac-YVAD-CHO”, the “band corresponding to the active form on Western Blotting” value is given as “no band corresponding to the active form was detected”.
For the compound `NC(=O)CI` [iodoacetamide], the Inhibitory agent result was “inhibited” and the enzyme activity inhibited entry is on record as “inhibited”. In addition, the “band corresponding to the active form on Western Blotting” value (650 μM iodoacetamide) was “no band corresponding to the active form was detected”.
